Series [1] has as its system sickle cells in HgBss blood. As to the kind of experiment: Metabisulfite slide test for sickling after APM given orally. It is filed as in vivo, patients. The procedure:
For comparative purposes, the number of sickle cells relative to the number of normal cells was obtained at 0, 30, 60, 120, 240, 480, and 1440 minutes after administration of APM according to the method given in Example 2.
Blood was drawn before and 120 minutes after treatment with 0, 1.5, 3, or 6 milligrams APM per kilogram body weight in a blinded fashion from the ten patients into heparin tubes, stored in a refrigerator at approximately 10° C. and routinely tested within 36 hours of collection.
Normal blood devoid of abnormal hemoglobin was used as a control. For each heparinized patient blood sample and the normal blood control, experimental samples were prepared containing 0.25 milliliters of normal saline and 0.25 milliliters of blood. […]
To account for natural or non-induced sickling of the experimental samples, a baseline sickling count was obtained for each heparinized patient blood sample and the normal blood control. […] Photomicrographs were taken with a phase contrast microscope at 400 magnification, and the results were obtained from the photomicrographs as the number of sickle cells per 100 cells counted. This number of sickle cells per 100 cells counted was considered the baseline sickling count and was subtracted from the cell counts obtained with the metabisulfite induced samples. […]

A further series relates to patient blood samples. As to the kind of experiment: Whole blood viscosity after in vitro addition of APM to patient blood samples. Type of series: cell-based. The conditions noted are these: HgBss patients; samples 480 minutes post-treatment; 1 or 2 milligrams/milliliter APM in vitro. The procedure: (§1) To measure viscosity, 1.01 cc of the test fluid, i.e., either water, saline or blood, was drawn into an RBC pipette using a 50 cc syringe attached via rubber tubing to the top of the RBC pipette. Using a constant pressure of 20 mm by maintaining the pressure with visual feedback and hand pressure, the amount of time it took for the test fluid to drip out of the RBC pipette was measured with a stopwatch. Each measurement was made in triplicate. Changes in viscosity from baseline for patient blood samples were recorded and compared to normal controls.
(§2) Samples with high viscosity readings at 480 minutes or 1,440 minutes post-treatment, chosen to represent patients with a validated response to APM who were returning to normal, were divided and treated with an additional 0, 1, or 2 milligrams/milliliter APM in vitro, in an effort to measure whether a second inducible sickling response was possible and if a second response to the in vitro APM addition could be observed. The viscosity of each sample at 480 minutes post-treatment was measured.

Series [2] deals with red blood cells containing HbS. The following applies: WO 00/18418; cited from earlier work.
In series [3] the test system is whole blood of sickle cell patients. As to the kind of experiment: Whole blood viscosity by RBC pipette method before and after administration of APM to sickle cell patients. The conditions noted are these: for blood viscosity after treatment: baseline vs 120 minutes post-treatment, APM 1.5, 3 or 6 mg/kg body weight. It is filed as in vivo. The procedure: Blood samples were obtained from ten patients having homozygous HgBss disease or heterozygous Hgbsc disease before and after a blinded administration of APM at 1.5 (low dose), 3 (medium dose), or 6 (high dose) milligrams per kilogram body weight.
Viscosity determinations using the RBC pipette method of Wright and Jenkins (1970, Blood 36:516) were made on each blinded whole blood sample before and 120 minutes after blinded administration of APM. Each measurement was made in triplicate. Control viscosity measurements using saline and water for each patient and normal whole blood were also made to validate the viscosity measurements.
as §1

The subject of series [4] is sickle cells in HgBss blood. As to the kind of experiment: Sickling after in vitro addition of APM to patient blood. Type of series: cell-based, patients. How it is done:
as §2
Using metabisulfite to reduce HbS to the deoxy form (Daland, G. A. and Castle, W. B. 1948. J Lab Clin Med 33:1082-1088; Nelson, D. A. In Todd-Sanford-Davidsohn Clinical Diagnosis by Laboratory Methods, J. B. Henry, ed. (W.B. Saunders Co., Philadelphia, 1979, vol. 1, p. 1020), a baseline sickling test was run on each experimental sample. The sickling inducing agent was prepared fresh daily as follows: 10 milligrams metabisulfite in 1 milliliter isotonic saline. Multiple test slides were prepared for each experimental sample by adding approximately 300 microliters of the metabisulfite inducing agent to 50 microliters of well mixed blood and placing about 4 drops of the experimental sample onto the surface of a glass slide, placing a coverslip over the sample, and sealing the coverslip with a petroleum jelly bead to prevent oxygen from entering the sample. […]

For series [5] the following is noted: with the exception of patients suffering from phenylketonuria; cited from earlier work.
The conditions of series [6]: clinical trial; osteo- and mixed osteo- and rheumatoid arthritis; cited from earlier work.

This is an account of results in patent US6919374B1, “Viscosity modulating substance and use thereof” (Oklahoma Medical Research Foundation, priority 1999, dated 2005).

Structures are written as SMILES. “Also recorded” adds a separate entry of the source. Where a SMILES comes first, the peptide text is derived from it.

With `COC(=O)[C@H](Cc1ccccc1)NC(=O)[C@@H](N)CC(=O)O` [APM, N-L-alpha-aspartyl-L-phenylalanine 1-methyl ester] (H-Asp-Phe-OMe), the “number of sickle cells” value in series [1] and in series [4] was “reduces the number of sickle cells” in each case. Further, the “viscosity of blood samples after in vitro APM addition, compared to the control” value in the series with patient blood samples is “decreased; also recorded: reduces”. For the same compound, the “capacity of red blood cells containing HbS to sickle with hypoxemia” value in series [2] is given as “reduction”. In addition, the “blood viscosity after treatment” value is “decreased; also recorded: reduces the viscosity” in series [3] (HgBss patients) and “decreased” in series [3] (sbthal patients). Further, in series [3] (in vivo), the whole blood viscosity entry is on record as “lowers whole blood viscosity”. Further, the “viscosity compared against Pirofsky's change in viscosity vs. hematocrit standard” value is “decreased” in series [3] (patients with sickle cell disease (HgBss)) and “increased” in series [3] (patients with sickle cell trait (Hbgsc)). Moreover, in series [5], the safety status entry is on record as “generally regarded as safe”. For the same compound, the “pain and inflammation of arthritis” value in series [6] was “alleviate the pain and inflammation”.
